“Also recorded” adds a separate entry of the source.
Experiments:
[1] = tested on: A. baumannii established biofilm; experiment: CLSM, effect of compound on the pre-existing biofilm; type: cell-based, Acinetobacter baumannii; conditions: 24 hr; for killing of established A. baumannii biofilm (CLSM, in words): 300 μM; for Effect of compound on the pre-existing biofilm: Killing: Y / —
Procedure: (§1) Broad spectrum agents (effective against all three bacterial species) and single agent compounds identified as HTS hits were investigated with CLSM confirmation of inhibition of biofilm formation (culture of bacteria with compounds) or killing of bacteria residing within an established biofilm (compound addition after culturing biofilm). To evaluate inhibition of P. aeruginosa biofilms, bacteria were sub-cultured into 10% L-broth and grown at 37° C. until the OD600 reached 0.25. The bacteria were further diluted 1:100 into a modified 0.5×M63 minimum media (50 mM KH2PO4, 7.5 mM (NH4)2SO4, 9 μM FeSO4, 0.5% casamino acids, 0.2% glucose, and 1 mM MgSO4). A. baumannii biofilms were also grown in 10% L-broth until the OD600 reached 0.05 but diluted 1:10 into 5% L-broth media. S. epidermidis biofilm cultures were grown. Briefly, the bacteria were grown in TSB until the OD600 reached 0.75, and a 1:100 dilution of the bacteria was sub-cultured into phosphate buffered saline (PBS). All of the biofilm bacterial cultures were grown in 96-well plate chambers (MatTek Corp., Ashland, Mass.) in the presence of 10 μM of each compound or DMSO as a control and incubated for 18 hrs at 37° C. To investigate the ability of compounds to kill bacteria within pre-existing biofilms, biofilms were grown under the same conditions, but without test compound. These biofilms were washed once with PBS and incubated an additional 24 hr at 37° C. in PBS containing 300 μM of each compound. All biofilm cultures were then washed twice with 100 μL of PBS and stained using the LIVE/DEAD® BacLight™ Bacterial Viability Kit (Invitrogen). Finally, biofilm images were obtained using a Zeiss LSM510 META Confocal Microscope (Carl Zeiss, Inc., Germany). A 488 nm laser was used in conjunction with a Plan-Apochromat 100×/1.4 Oil DIC objective. Z-stacks were 8 bit and measured 127.3 μm×127.3 μm×16.0 μm in size. The filters used were 505-530 and 620-680 IR, as the excitation and emission wavelengths for red fluorescence are 490 nm and 635 nm, respectively, and 480 nm and 500 nm for green fluorescence. Three dimensional images were generated using the “Projection” ability on LSM Image Browser software (v.1.4.0.121) or Zeiss LSM image browser software version 3.5 (Carl Zeiss, Inc., Germany), and Live/Dead calculations were conducted based upon these images using MacBiophotonics ImageJ following the guidelines in the cell counting guide by C. Labno {Rasband, 1997-2011 #25; Labno, #2} at the University of Chicago Integrated Light Microscopy Core. The thickness of the biofilm was calculated using Comstat software. A hit was defined as a >50% dead to live ratio.
(§2) The CLSM experiment was performed in one or two or all bacteria used in this study depending on its activity. For the validation of HTS hits, 10 μM of compound was added to each bacterial suspension and the resulting biofilm stained with LIVE/DEAD® BacLight™ Bacterial Viability Kit. The images were analyzed to determine the live and dead ratios of biofilm bacteria, the thickness of biofilms, and structural attributes of biofilms.

A. baumannii biofilm [2] = experiment: CLSM, co-culture of bacteria with compound (inhibition of biofilm formation); type: cell-based, Acinetobacter baumannii; conditions: for killing of residential bacteria, co-culture (CLSM, in words): 10 μM; for Co-culture of bacteria with compound: Killing: CLSM, 10 μM compound, 18 hrs, Y / —
Procedure: as §1, §2

A. baumannii biofilm [3] = experiment: HTS total biofilm formation assay (crystal violet staining); type: cell-based, Acinetobacter baumannii; conditions: Acinetobacter baumannii, 10 point dose-response 0.1-50 μM
Source text: (§3) Each HTS tier consisted of: (i) primary screening, (ii) confirmation screening and (iii) dose-response curve screening. Each tier of HTS included three distinct biological process assays. The first assay was an optical density measurement of bacteria growth in the presence of each compound reported as a total bacteria growth. In the second assay, resazurin solution was used as an indicator of metabolic activity to measure the live bacteria in the biofilms, reported as live biofilm. The final assay was crystal violet staining, which indicated the amount of biofilm formation and the effect of each compound on this process, reported as total biofilm formation.
(§4) Briefly, stationary phase bacteria grown in L-broth were diluted 1:200 into fresh L-broth and 50 μM of each test compound. After 20-24 hours, the optical density (OD560) of each suspension was measured using Zeiss Plate::Vision with a 560 BP filter (560 nm, 2.5% light intensity, 1 mm focus to bottom of plate, and exposure time of 100 ms). To measure bacterial viability in the biofilm, 50 μl of a 5 mg/ml resazurin solution in L-broth was added to each well after washing 3 times with 50 μl of PBS. The plates were then incubated at 37° C. for 30 or 180 min for A. baumannii and P. aeruginosa biofilms, respectively. Fluorescence was measured using Zeiss Plate::Vision at excitation and emission wavelengths of 535 and 580 nm, 100 ms exposure time, 2.5% intensity and a 2 mm focus to the bottom of the biofilms. To assess biofilm formation, plates were washed 3 times with PBS and then 50 μl of 0.01% of crystal violet was added to each well to assess bacterial biofilm formation as described in a similar borosilicate tube assay by O'Toole and Kolter. After incubation at room temperature for 30 min and removal of the crystal violet solution by washing with PBS, 95% ethanol was added to solubilize the crystal violet followed by incubation for 20 min at room temperature. Finally, the optical density of each plate was determined using measured by Zeiss Plate::Vision using the same settings used to measure total bacterial growth. These 3 steps were used in each of the three tiers for the HTS process: (i) single point primary screening at 10 μM, (ii) triplicate confirmation of hits from (i) at 10 μM and (iii) determination of AC50 values in 10 point dose-response at a concentration range of 0.1-50 μM) in hits from (ii). The AC50 represents the concentration of compound that inhibits 50% of bacterial growth, bacterial viability, or biofilm formation. Genedata Screener® Assay Analyzer Software (Ver. 9.0.0 Standard) was used to analyze data from all assay tiers. Compounds with an AC50 of less than 20 μM in one of the biological assays from the dose response screen were subject to additional investigation.

A. baumannii biofilm [4] = experiment: HTS live biofilm assay (resazurin metabolic activity); type: cell-based, Acinetobacter baumannii; conditions: Acinetobacter baumannii, 10 point dose-response 0.1-50 μM
Source text: as §3, §4

A. baumannii = experiment: HTS total bacterial growth assay (optical density OD560); type: cell-based, Acinetobacter baumannii; conditions: 10 point dose-response 0.1-50 μM, NS* = no sigmoid curve observed; for AC50: Acinetobacter baumannii, read-out: Total Bacteria Growth AC50
Source text: as §3, §4

P. aeruginosa biofilm [5] = experiment: CLSM, co-culture of bacteria with compound (inhibition of biofilm formation); type: cell-based, Pseudomonas aeruginosa
Procedure: as §1, §2

P. aeruginosa biofilm [6] = experiment: HTS live biofilm assay (resazurin metabolic activity); type: cell-based; conditions: Pseudomonas aeruginosa, 10 point dose-response 0.1-50 μM
Source text: as §3, §4

P. aeruginosa = experiment: HTS total bacterial growth assay (optical density OD560); type: cell-based, Pseudomonas aeruginosa; conditions: Pseudomonas aeruginosa, 10 point dose-response 0.1-50 μM, read-out: Total Bacteria Growth AC50
Source text: as §3, §4

P. aeruginosa biofilm [7] = experiment: HTS total biofilm formation assay (crystal violet staining); type: cell-based, Pseudomonas aeruginosa; conditions: Pseudomonas aeruginosa, 10 point dose-response 0.1-50 μM
Source text: as §3, §4

Molecule | killing of established A. baumannii biofilm (CLSM, in words) [1] | Effect of compound on the pre-existing biofilm: Killing ([1]; CLSM, 300 μM compound) | AC50 (A. baumannii biofilm [3]) | AC50 (A. baumannii biofilm [4]) | AC50 (A. baumannii) | Total Bacteria Growth AC50 (A. baumannii) | further results
O/N=C1/C=Cc2[nH]c(-c3ccccc3)cc2/C1=N/O [Compound 18, N-(4-nitroso-2-phenyl-1H-indol-5-yl)hydroxylamine] | demonstrated killing of established biofilm culture; also recorded: effective against biofilm resident A. baumannii | Y (A hit was defined as a >50% dead to live ratio) | 14.6 µM | 4.53 µM | 17.7 µM |  | killing of residential bacteria, co-culture (CLSM, in words) (A. baumannii biofilm [2]): effective in killing the bacterium; Co-culture of bacteria with compound: Killing (A. baumannii biofilm [2]): Y (A hit was defined as a >50% dead to live ratio)
CCCCC(C(=O)N/N=C/c1cc(Br)ccc1O)C(=O)N/N=C/c1cc(Br)ccc1O [Compound 25, N′1,N′3-Bis [(E)-(5-bromo-2-hydroxyphenyl)methylene]-2-butylmalonohydrazide] |  |  | 5.11 µM | 1.26 µM | > 200 µM |  | 
Oc1ccc2c(c1O)O[C@@]13NC(=S)N[C@@H](c4ccccc4)[C@H]1CCC[C@H]3[C@H]2c1ccccc1 (relative stereo) [Compound 24, (4R,4aR,7aS,8S,13aR)-rel-3,4,4a,5,6,7,7a,8-octahydro-11,12-dihydroxy-4,8-diphenyl-[1]Benzopyrano[3,2-i]quinazoline-2(1H)-thione] | demonstrated killing of established biofilm culture; also recorded: effective against biofilm resident A. baumannii | Y (A hit was defined as a >50% dead to live ratio) | 3.75 µM | 1.13 µM | > 200 µM |  | 
C=CCSC1=NC(C)(C)CC2(CC(c3ccccc3)c3ccc(O)c(O)c3O2)N1 (stereo not drawn) [Compound 34, 3,4,5′,6′-tetrahydro-6′,6′-dimethyl-4-phenyl-2′-(2-propen-1-ylthio)-spiro[2H-1-benzopyran-2,4′(3′H)-pyrimidine]-7,8-diol] | effective against biofilm resident A. baumannii |  |  |  |  |  | killing of residential bacteria, co-culture (CLSM, in words) (A. baumannii biofilm [2]): effective in killing the bacterium
Cc1n[nH]c(O)c1C(c1cccc(OCc2ccc(Cl)c(Cl)c2)c1)c1c(C)n[nH]c1O [Compound 26, 4-[{3-[(3,4-dichlorobenzyl)oxy]phenyl}(5-hydroxy-3-methyl-1H-pyrazol-4-yl)methyl]-3-methyl-1H-pyrazol-5-ol] | demonstrated killing of established biofilm culture; also recorded: effective against biofilm resident A. baumannii | Y (A hit was defined as a >50% dead to live ratio) | 7.6 µM | 8.07 µM |  | NS* | 
N-2-(4-methoxybenzothiazolyl)-2,3-dihydro-4-Methyl-5-oxo-1H,5HBenzo[ij]quinolizine-6-carboxamide [Compound 28] | effective against biofilm resident A. baumannii |  |  |  |  |  | 
Oc1c(Cl)cc(Cl)c(Cl)c1-c1nc2ccccc2[nH]1 [Compound 29, 2-(1H-benzoimidazol-2-YL)-3,4,6 Trichlrophenol] |  |  | 8.37 µM | > 200 µM |  | NS* | 
O=C(O)c1cn(-c2ccc(F)cc2F)c2nc(N3CCC(O)CC3)c(F)cc2c1=O [Compound 14, 1-(2,4-difluorophenyl)-6-fluoro-1,4-dihydro-4-oxo-7-(4-hydroxy-1-piperidinyl)-1,8-Naphthyridine-3-carboxylic acid] |  |  |  |  |  |  | killing of residential bacteria, co-culture (CLSM, in words) (P. aeruginosa biofilm [5]; 10 μM): lethal to residential bacteria; Co-culture of bacteria with compound: Killing (P. aeruginosa biofilm [5]; CLSM, 10 μM compound, 18 hrs, Y / —): Y (A hit was defined as a >50% dead to live ratio); AC50 (P. aeruginosa biofilm [6]): 80.1 µM; AC50 (P. aeruginosa): 13.6 µM; AC50 (P. aeruginosa biofilm [7]): 13 µM
O=C(N/N=C/c1cc(Br)c(O)cc1O)c1cc2c(ccc3ccccc32)o1 [Compound 23, N′-[(E)-(5-Bromo-2,4-dihydroxyphenyl)methylene]naphtho[2,1-b]furan-2-carbohydrazide] |  |  | 17.5 µM | 8.97 µM | > 200 µM |  | 
O=C(N/N=C/c1ccc(O)cc1O)c1cc(-c2ccccc2)nc2ccccc12 [Compound 33, N′-(2,4-dihydroxybenzylidene)-2-phenylquinoline-4-carbohydrazide] |  |  | 17.2 µM | 7.28 µM | > 200 µM |  | 
Nc1nonc1-c1nc2ccccc2n1CC(=O)N/N=C/c1cc(Br)cc(Br)c1O [Compound 21, 2-[2-(4-amino-1,2,5-oxadiazol-3-yl)-1H-benzimidazol-1-yl]-N′-[(E)-(3,5-dibromo-2-hydroxyphenyl)methylidene]acetohydrazide] |  |  | 14.6 µM | 9.86 µM |  | NS* | 
CCCCOC(=O)C(=O)CC(=O)/C=C/c1ccccc1 [Compound 30, Butyl (E)-2,4-dioxo-6-phenylhex-5-enoate] |  |  | 8.54 µM | 2.35 µM |  | NS* | 
Oc1c(I)cc(I)cc1/C=N/c1ccc2[nH]c(-c3ccccc3)nc2c1 [Compound 31] | demonstrated killing of established biofilm culture; also recorded: demonstrated ability in killing; also recorded: effective against biofilm resident A. baumannii | Y (A hit was defined as a >50% dead to live ratio) | 23.5 µM | 17.4 µM | > 200 µM |  | Effect of compound on the pre-existing biofilm: Dispersion ([1]; CLSM, 300 μM compound): did demonstrate dispersion activity; killing of residential bacteria, co-culture (CLSM, in words) (A. baumannii biofilm [2]): effective in killing the bacterium; Co-culture of bacteria with compound: Killing (A. baumannii biofilm [2]): Y (A hit was defined as a >50% dead to live ratio)

Source: patent publication US10704076B2, “Multi-tiered high through-put screen for compounds effective against bacterial biofilm and compounds effective for inhibiting and eradicating bacterial biofilm” (University of Cincinnati, priority 2013, dated 2020)
